Structures are written as SMILES.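 Grown in 96-well plates, cells were treated for 48 hours with each compound at five concentrations. Insufficient inhibition: endpoint recorded as highest concentration tested. GI50 = concentration required for 50% inhibition of growth.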 Calls of active or inactive are those of the source. No stated cut-off is given here; in the data, active = GI50 up to about 1.1 µM and inactive = higher.

The source of these data is ChEMBL document CHEMBL1201862, “PubChem BioAssay data set” (2004).

Holding throughout (assay): inhibition of tumour cell growth, NCI panel, 48 h
The test system of assay [1] is UACC-62.
Assay [2] concerns ACHN.
The test system of assay [3] is NCI-H460.
Assay [4] has as its system A549.
For assay [5], the system named is SN12C.
For assay [6], the system named is T47D.
The test system of assay [7] is SK-OV-3.
Assay [8] concerns RPMI-8226.
In assay [9] the test system is SR.
The test system of assay [10] is SF-295.
For assay [11], the system named is IGROV-1.
Assay [12] deals with KM12.
The test system of assay [13] is SNB-19.
Assay [14] relates to SW-620.
In assay [15] the test system is OVCAR-8.
In assay [16] the test system is UO-31.
Assay [17] concerns SK-MEL-5.
The subject of assay [18] is M14.
The subject of assay [19] is K562.
Assay [20] deals with HCC 2998.

For the compound `COC(=O)C(Cc1ccc2c(c1)CCC2)Cc1ccc2c(c1)CCC2`, the GI50 in assay [1] is > 100 µM (inactive); in assay [2], 68.7 µM (inactive); in assay [3], 53.2 µM (inactive); in assay [4], 41.3 µM (inactive); in assay [5], > 100 µM (inactive); in assay [6] it was 20.9 µM (inactive). In addition, the GI50 in assay [7] is > 100 µM (inactive); in assay [8], 26.1 µM (inactive); in assay [9], 57 µM (inactive); in [10] it was 36.6 µM (inactive); in [11] it was > 100 µM (inactive); in assay [12], 37.3 µM (inactive). The GI50 is > 100 µM (inactive) in assay [13]; > 100 µM (inactive) in assay [14]; 53.6 µM (inactive) in assay [15]; 53.3 µM (inactive) in assay [16]; 25.9 µM (inactive) in [17]; 80 µM (inactive) in assay [18]. In addition, in [19], the GI50 was 43.1 µM (inactive).

For `Cc1ccc(C2=C(Cl)C(=O)C(c3ccc(C)cc3)=C(Cl)C2=O)cc1`, the GI50 in [1], in assay [2], in [3], in assay [4], in assay [5] and in assay [6] was > 100 µM (inactive) throughout. Further, the GI50 in assay [7], in assay [8], in assay [9], in assay [10], in assay [11] and in assay [12] was > 100 µM (inactive) throughout. Also, the GI50 in assay [13], in [14], in assay [15], in assay [16], in [17] and in assay [18] was > 100 µM (inactive) each time. The GI50 in [19] is > 100 µM (inactive).

Consider `Cc1cn(C2CC(COCc3ccccc3)N(CCO[Si](C)(C)C(C)(C)C)O2)c(=O)[nH]c1=O` (stereo not drawn), for which the GI50 is 11.9 µM (inactive) in assay [1]; 14.9 µM (inactive) in assay [2]; 18.5 µM (inactive) in assay [3]; 15.1 µM (inactive) in [4]; 11 µM (inactive) in [5]; 13.5 µM (inactive) in assay [6]. Further, the GI50 in assay [7] was 17.6 µM (inactive); in assay [8], 15.1 µM (inactive); in assay [9], 35.1 µM (inactive); in assay [10], 16.4 µM (inactive); in assay [12] it was 17.3 µM (inactive); in assay [13], 13.6 µM (inactive). For the same compound, the GI50 in assay [14] is 15.5 µM (inactive); in assay [15] it was 15.5 µM (inactive); in assay [16], 13.8 µM (inactive); in assay [17] it was 2.88 µM (inactive); in assay [18], 15 µM (inactive); in assay [19] it was 4.71 µM (inactive).

Regarding `CC1=CC(=O)N(n2c(-c3ccccc3)n[nH]c2=O)C1=O`, the GI50 in assay [1], in assay [2], in [3], in assay [4], in assay [5] and in [6] was > 100 µM (inactive) each time. In addition, the GI50 in assay [7], in assay [8], in assay [10], in assay [11], in assay [12] and in assay [13] was > 100 µM (inactive) in each case. The GI50 in assay [20], in assay [14], in [15], in assay [16], in [17] and in [18] was > 100 µM (inactive) throughout. Also, in [19], the GI50 is > 100 µM (inactive).

In the case of `N#CCCN(CCN(CCN(C(=O)Nc1ccccc1)c1ccccc1)C(=O)Nc1ccccc1)C(=O)Nc1ccccc1`, the GI50 in [1] is > 100 µM (inactive); in assay [2], 40.1 µM (inactive); in assay [4], > 100 µM (inactive); in assay [5], > 100 µM (inactive); in assay [6], 48.4 µM (inactive); in assay [7], > 100 µM (inactive). For the same compound, the GI50 is 6.47 µM (inactive) in assay [8]; > 100 µM (inactive) in assay [10]; 43.9 µM (inactive) in assay [11]; 2.57 µM (inactive) in assay [12]; > 100 µM (inactive) in assay [13]; 28.2 µM (inactive) in assay [20]. The GI50 in assay [14], in assay [15], in assay [16], in assay [17] and in assay [18] was > 100 µM (inactive) throughout.

`Cc1ccc(S(=O)(=O)N2C[C@](O)(c3ccccc3)[C@H]2C)cc1`: the GI50 was > 100 µM (inactive) in assay [1]; > 100 µM (inactive) in assay [2]; > 100 µM (inactive) in [3]; > 100 µM (inactive) in [4]; > 100 µM (inactive) in assay [5]; 47.9 µM (inactive) in assay [6]. Moreover, the GI50 in assay [7], in assay [10], in assay [11], in assay [12], in [13] and in [14] was > 100 µM (inactive) in each case. The GI50 in [15] is > 100 µM (inactive); in assay [16], > 100 µM (inactive); in assay [17], 51.1 µM (inactive); in [18] it was > 100 µM (inactive).

As for `Cc1nc(Nc2nc3ccccc3[nH]2)nc(Cl)c1CCCl`, the GI50 in assay [1], in assay [2], in assay [3], in [4], in assay [5] and in [6] was > 100 µM (inactive) in each case. In addition, the GI50 in assay [8], in assay [9], in assay [11], in assay [12], in assay [13] and in assay [14] was > 100 µM (inactive) throughout. Besides, the GI50 in assay [15], in [16], in [17], in assay [18] and in assay [19] was > 100 µM (inactive) throughout.

Regarding `Cc1cc2c(cc1Cl)SC(N/N=C(\N)c1ccc(Cl)cc1)=NS2(=O)=O`, the GI50 is 59.7 µM (inactive) in assay [1]; 84.3 µM (inactive) in assay [2]; 52.7 µM (inactive) in assay [3]; 96.6 µM (inactive) in assay [4]; 78.3 µM (inactive) in [5]; 53.3 µM (inactive) in assay [6]. Besides, the GI50 was > 100 µM (inactive) in assay [7]; 71.3 µM (inactive) in assay [10]; 31 µM (inactive) in [11]; 35.2 µM (inactive) in assay [12]; 77.4 µM (inactive) in [13]; 40.6 µM (inactive) in [20]. The GI50 in assay [14] was 25.8 µM (inactive); in [15], 45.4 µM (inactive); in assay [16], 42.7 µM (inactive); in [17], > 100 µM (inactive); in assay [18] it was 81.5 µM (inactive); in [19], 44 µM (inactive).

`CC(=O)c1cc2c(s1)C(=O)c1ccsc1C2=O`: the GI50 is 0.255 µM (active) in [1]; 0.215 µM (active) in [2]; 2.05 µM (inactive) in assay [4]; 0.182 µM (active) in assay [5]; 1.31 µM (inactive) in assay [6]; 1.87 µM (inactive) in assay [7]. In addition, the GI50 in [8] was 3.85 µM (inactive); in assay [10], 0.16 µM (active); in [11] it was 1.75 µM (inactive); in assay [12] it was 1.61 µM (inactive); in assay [13], 0.294 µM (active); in [20], 1.74 µM (inactive). Besides, the GI50 in assay [14] is 0.275 µM (active); in assay [15] it was 0.373 µM (active); in assay [16] it was 0.243 µM (active); in assay [17], 0.0559 µM (active); in [18], 0.28 µM (active); in assay [19], 0.407 µM (active).

`CN(C)CCCNC(=O)CNC(=O)c1cc(NC(=O)c2cc(NC(=O)c3cc(NC(=O)CCNC(=O)c4cc(NC(=O)c5cc(NC(=O)c6nccn6C)cn5C)cn4C)cn3C)cn2C)cn1C`: the GI50 in assay [2], in assay [3], in [4], in assay [5], in assay [6] and in assay [7] was > 100 µM (inactive) each time. The GI50 is > 100 µM (inactive) in assay [8]; > 100 µM (inactive) in assay [10]; > 100 µM (inactive) in assay [11]; 64.6 µM (inactive) in [12]; > 100 µM (inactive) in [13]; > 100 µM (inactive) in [20]. Moreover, the GI50 in assay [14] is > 100 µM (inactive); in assay [15], > 100 µM (inactive); in assay [16] it was > 100 µM (inactive); in [17], > 100 µM (inactive); in [18], > 100 µM (inactive); in assay [19] it was 59.4 µM (inactive).

Regarding `CCCC[C@H]1CCN2C[C@@H](O)[C@@H](O)[C@H]2[C@@H]1O`, the GI50 in assay [1], in [2], in [3], in [4], in assay [5] and in [6] was > 100 µM (inactive) each time. For the same compound, the GI50 in assay [7], in assay [8], in assay [10], in assay [11], in assay [12] and in assay [13] was > 100 µM (inactive) each time. For the same compound, the GI50 in [20], in [14], in [15], in assay [16], in assay [17] and in assay [18] was > 100 µM (inactive) throughout. Also, in [19], the GI50 is > 100 µM (inactive).
